Data from PubChem BioAssay AID248 (DTP/NCI, 2004).
Several values for one entry are separate records, joined by “and”; a condition that tells them apart may be missing. Equal entries are not always repeated. Toxic doses and inconclusive results are not listed.

Test system: L1210 leukemia ip in BDF1 mice, survival T/C
Assay: NCI In Vivo Anticancer Drug Screen. Data for tumor model L1210 Leukemia (intraperitoneal) in B6D2F1 (BDF1) mice
Details: endpoint: mean survival time, higher = longer survival
In short: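 Transplanted-tumor mice were given test agent; controls received vehicle only. Survival readings from the two groups were divided (treated over control).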

[1] = dose: 100.0 mg/kg/injection, schedule: Q04DX002 (ip), vehicle: saline with Tween-80
[2] = dose: 200.0 mg/kg/injection, schedule: Q04DX002 (ip), vehicle: saline with Tween-80
[3] = dose: 50.0 mg/kg/injection, schedule: Q01DX009 (ip), vehicle: Klucel (hydroxypropylcellulose) (HPC)
[4] = dose: 100.0 mg/kg/injection, schedule: Q01DX009 (ip), vehicle: Klucel (hydroxypropylcellulose) (HPC)
[5] = dose: 200.0 mg/kg/injection, schedule: Q01DX009 (ip), vehicle: Klucel (hydroxypropylcellulose) (HPC)
[6] = dose: 100.0 mg/kg/injection, schedule: Q04DX003 (ip), vehicle: saline
[7] = dose: 200.0 mg/kg/injection, schedule: Q04DX003 (ip), vehicle: saline
[8] = dose: 100.0 mg/kg/injection, schedule: Q04DX003 (ip), vehicle: Klucel (hydroxypropylcellulose) (HPC)
[9] = dose: 200.0 mg/kg/injection, schedule: Q04DX003 (ip), vehicle: Klucel (hydroxypropylcellulose) (HPC)
[10] = dose: 400.0 mg/kg/injection, schedule: Q01DX009 (ip), vehicle: Klucel (hydroxypropylcellulose) (HPC)
[11] = dose: 400.0 mg/kg/injection, schedule: Q04DX003 (ip), vehicle: Klucel (hydroxypropylcellulose) (HPC)
[12] = dose: 400.0 mg/kg/injection, schedule: Q04DX003 (ip), vehicle: saline
[13] = dose: 100.0 mg/kg/injection, schedule: Q04DX003 (ip), vehicle: saline with Tween-80
[14] = dose: 200.0 mg/kg/injection, schedule: Q04DX003 (ip), vehicle: saline with Tween-80
[15] = dose: 400.0 mg/kg/injection, schedule: Q04DX003 (ip), vehicle: saline with Tween-80
[16] = dose: 100.0 mg/kg/injection, schedule: Q01DX001 (ip), vehicle: carboxymethylcellulose (CMC)
[17] = dose: 200.0 mg/kg/injection, schedule: Q01DX001 (ip), vehicle: carboxymethylcellulose (CMC)

FC(F)(F)c1cccc(NC2=NCCS2)c1
T/C (dose: 50.0 mg/kg/injection, schedule: Q01DX009 (ip), vehicle: saline with Tween-80): 91 % of control | T/C (dose: 100.0 mg/kg/injection, schedule: Q01DX009 (ip), vehicle: saline with Tween-80): 98 % of control | T/C [1]: 97 % of control | T/C [2]: 115 % of control

C1=C2NNC(c3ccccc3)=C(c3ccccc3)C2=CCC1 (tested in a mixture with another compound)
T/C [3]: 94 % of control | T/C [4]: 90 % of control | T/C [5]: 90 % of control

C[P+]1(CCc2ccc(Cl)cc2)CC(Br)C(Br)C1 (stereo unspecified)
T/C (dose: 100.0 mg/kg/injection, schedule: Q01DX001 (ip), vehicle: Klucel (hydroxypropylcellulose) (HPC)): 104 % of control

COC(=O)c1cc(C)c(C)cc1N
T/C (dose: 100.0 mg/kg/injection, schedule: Q01DX001 (ip), vehicle: saline): 102 % of control | T/C (dose: 200.0 mg/kg/injection, schedule: Q01DX001 (ip), vehicle: saline): 96 % of control | T/C (dose: 400.0 mg/kg/injection, schedule: Q01DX001 (ip), vehicle: saline): 93 % of control

c1ccc2c(c1)[nH]c1nc3ccncc3nc12
T/C [6]: 103 % of control | T/C [7]: 94 % of control

COC(=O)C(CCl)NC(=O)c1ccccc1 (stereo unspecified)
T/C (dose: 50.0 mg/kg/injection, schedule: Q01DX009 (ip), vehicle: saline): 105 % of control | T/C (dose: 100.0 mg/kg/injection, schedule: Q01DX009 (ip), vehicle: saline): 90 % of control | T/C [8]: 102 % of control | T/C (dose: 200.0 mg/kg/injection, schedule: Q01DX009 (ip), vehicle: saline): 95 % of control | T/C [9]: 96 % of control

CSc1ccc(NC(=O)N(Cc2ccccc2)c2ccccc2)cc1
T/C [4]: 106 % of control | T/C [5]: 101 % of control | T/C [10]: 95 % of control

CC1(C)C2CCC(I)(C2)C1O (stereo unspecified)
T/C (dose: 100.0 mg/kg/injection, schedule: Q01DX001 (ip), vehicle: saline with Tween-80): 105 % of control | T/C (dose: 200.0 mg/kg/injection, schedule: Q01DX001 (ip), vehicle: saline with Tween-80): 100 % of control | T/C (dose: 400.0 mg/kg/injection, schedule: Q01DX001 (ip), vehicle: saline with Tween-80): 105 % of control

O=NN(CCF)C(=O)NCCF
T/C (dose: 1.25 mg/kg/injection, schedule: Q01DX001 (ip), vehicle: saline): 113 % of control | T/C (dose: 1.75 mg/kg/injection, schedule: Q01DX001 (ip), vehicle: saline): 118 % of control | T/C (dose: 2.0 mg/kg/injection, schedule: Q01DX001 (ip), vehicle: saline): 116 % of control | T/C (dose: 2.5 mg/kg/injection, schedule: Q01DX001 (ip), vehicle: saline): 118 % of control | T/C (dose: 3.5 mg/kg/injection, schedule: Q01DX001 (ip), vehicle: saline): 161 % of control | T/C (dose: 5.0 mg/kg/injection, schedule: Q01DX001 (ip), vehicle: saline): 156 % of control | T/C (dose: 6.0 mg/kg/injection, schedule: Q01DX001 (ip), vehicle: saline): 242 % of control | T/C (dose: 7.0 mg/kg/injection, schedule: Q01DX001 (ip), vehicle: saline): 316 % of control | T/C (dose: 8.0 mg/kg/injection, schedule: Q01DX001 (ip), vehicle: saline): 201 % of control | T/C (dose: 12.0 mg/kg/injection, schedule: Q01DX001 (ip), vehicle: saline): 312 % of control and 333 % of control | T/C (dose: 18.0 mg/kg/injection, schedule: Q01DX001 (ip), vehicle: saline): 322 % of control

CC(=O)NC1CC2c3ccccc3C1([N+](=O)[O-])c1ccccc12 (stereo unspecified)
T/C [4]: 107 % of control | T/C [8]: 107 % of control | T/C [6]: 107 % of control | T/C [5]: 101 % of control | T/C [9]: 105 % of control | T/C [7]: 105 % of control | T/C [10]: 97 % of control | T/C [11]: 97 % of control | T/C [12]: 97 % of control

CCOC(=O)CCCC(=O)N(CC(=O)OCC)Cc1ccccc1
T/C [13]: 102 % of control | T/C [14]: 93 % of control | T/C [15]: 90 % of control

C/C=C(C)/C=N/Nc1nnc(N/N=C/C(C)=C/C)c2ccccc12
T/C (dose: 50.0 mg/kg/injection, schedule: Q01DX001 (ip), vehicle: carboxymethylcellulose (CMC)): 95 % of control | T/C [16]: 95 % of control | T/C [17]: 103 % of control

CC(C)NNC(C)Cc1ccccc1 (stereo unspecified)
T/C (dose: 25.0 mg/kg/injection, schedule: Q04DX003 (ip), vehicle: Klucel (hydroxypropylcellulose) (HPC)): 104 % of control | T/C (dose: 50.0 mg/kg/injection, schedule: Q04DX003 (ip), vehicle: Klucel (hydroxypropylcellulose) (HPC)): 102 % of control | T/C [8]: 98 % of control

CCN(CC)CCCC#CCN1CCCC1
T/C [3]: 92 % of control | T/C [4]: 100 % of control | T/C [8]: 91 % of control | T/C [9]: 100 % of control

O=C(O)CN1C(=O)C2C3C=CC(C3)C2C1=O (stereo unspecified)
T/C [13]: 97 % of control | T/C [14]: 94 % of control | T/C [15]: 94 % of control

COc1ccc(/C=C(/C(=O)c2ccc(O)cc2)c2ccccc2)cc1
T/C [16]: 87 % of control | T/C [17]: 89 % of control | T/C (dose: 400.0 mg/kg/injection, schedule: Q01DX001 (ip), vehicle: carboxymethylcellulose (CMC)): 87 % of control

Cc1cccc(P(=O)(c2ccccc2)c2ccccc2)c1 (tested in a mixture with another compound)
T/C [1]: 104 % of control | T/C [2]: 96 % of control | T/C (dose: 400.0 mg/kg/injection, schedule: Q04DX002 (ip), vehicle: saline with Tween-80): 88 % of control

Cc1ccc(NC(=O)Nc2ccc(Cl)c(Cl)c2)cc1Cl
T/C [4]: 97 % of control | T/C [8]: 93 % of control | T/C [5]: 87 % of control | T/C [9]: 96 % of control | T/C [10]: 92 % of control | T/C [11]: 91 % of control

FC(F)(F)c1cccc(N2CCNCC2)c1
T/C (dose: 75.0 mg/kg/injection, schedule: Q01DX001 (ip), vehicle: acid diluted with saline): 90 % of control

CCOC(=O)C1CCC(NC(=O)N(CCCl)N=O)CC1 (stereo unspecified)
T/C (dose: 3.0 mg/kg/injection, schedule: Q01DX001 (ip), vehicle: other): 109 % of control | T/C (dose: 12.0 mg/kg/injection, schedule: Q01DX001 (ip), vehicle: other): 189 % of control | T/C (dose: 16.0 mg/kg/injection, schedule: Q01DX001 (ip), vehicle: other): 281 % of control | T/C (dose: 20.0 mg/kg/injection, schedule: Q01DX001 (ip), vehicle: other): 298 % of control | T/C (dose: 21.0 mg/kg/injection, schedule: Q01DX001 (ip), vehicle: other): 315 % of control | T/C (dose: 24.0 mg/kg/injection, schedule: Q01DX001 (ip), vehicle: other): 267 % of control | T/C (dose: 30.0 mg/kg/injection, schedule: Q01DX001 (ip), vehicle: other): 283 % of control | T/C (dose: 31.0 mg/kg/injection, schedule: Q01DX001 (ip), vehicle: other): 317 % of control and 337 % of control | T/C (dose: 44.0 mg/kg/injection, schedule: Q01DX001 (ip), vehicle: other): 270 % of control | T/C (dose: 47.0 mg/kg/injection, schedule: Q01DX001 (ip), vehicle: other): 252 % of control | T/C (dose: 62.0 mg/kg/injection, schedule: Q01DX001 (ip), vehicle: other): 259 % of control | T/C (dose: 70.0 mg/kg/injection, schedule: Q01DX001 (ip), vehicle: other): 159 % of control

Nc1nnnn1-c1ccccc1
T/C (dose: 100.0 mg/kg/injection, schedule: Q04DX002 (ip), vehicle: Klucel (hydroxypropylcellulose) (HPC)): 102 % of control | T/C (dose: 200.0 mg/kg/injection, schedule: Q04DX002 (ip), vehicle: Klucel (hydroxypropylcellulose) (HPC)): 102 % of control | T/C (dose: 400.0 mg/kg/injection, schedule: Q04DX002 (ip), vehicle: Klucel (hydroxypropylcellulose) (HPC)): 91 % of control

O=C(O)C1CCCS1(=O)=O (stereo unspecified)
T/C [6]: 96 % of control | T/C [7]: 94 % of control | T/C [12]: 88 % of control

NC(=S)N/N=C/c1cnccn1
T/C (dose: 13.0 mg/kg/injection, schedule: Q03HX032 (ip), vehicle: saline with Tween-80): 98 % of control | T/C (dose: 20.0 mg/kg/injection, schedule: Q03HX032 (ip), vehicle: saline with Tween-80): 101 % of control | T/C (dose: 29.0 mg/kg/injection, schedule: Q03HX032 (ip), vehicle: saline with Tween-80): 113 % of control | T/C (dose: 44.0 mg/kg/injection, schedule: Q03HX032 (ip), vehicle: saline with Tween-80): 115 % of control | T/C (dose: 200.0 mg/kg/injection, schedule: Q01DX009 (ip), vehicle: saline with Tween-80): 86 % of control
